Holding throughout (experiment): NCI anticancer screen, dose series, 48 h
The subject of assay [1] is TK-10 renal.
In assay [2] the test system is NCI-H23 lung.
The subject of assay [3] is HCT-15 colon.
In assay [4] the test system is RXF 393 renal.
Assay [5] deals with HT29 colon.
The subject of assay [6] is K-562 leukemia.
In assay [7] the test system is 786-0 renal.
For assay [8], the system named is CAKI-1 renal.
Assay [9] relates to SN12C renal.
For assay [10], the system named is SW-620 colon.

Structures are written as SMILES. Several values for one entry are separate records, joined by “and”; a condition that tells them apart may be missing. Equal values may be shown once.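 Where inhibition never reached the appropriate level, the endpoint shown equals the highest concentration tested. Otherwise, values were interpolated linearly from a five-concentration, 48-hour dose response in 96-well plates. At the GI50, growth is halved. At the TGI there is no net growth.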 Where only a bound is given, the exact number is not on record here.

Consider `Cc1cc(S(=O)(=O)/N=C(/[N-]S(=O)(=O)c2ccc(Cl)cc2)[n+]2ccc(N(C)C)cc2)c(SCC(=O)O)cc1Cl`, for which the TGI in assay [1], in assay [2], in assay [3], in [4], in [5] and in assay [6] was > 100 µM in each case. Further, the TGI in assay [7], in assay [8], in [9] and in assay [10] was > 100 µM in each case.

On to `Cc1cccc(-c2cc(=O)c3c(C)cc(C)nc3[nH]2)c1`, for which the TGI in assay [1] was > 100 µM; in [2] it was 40.4 µM; in assay [3], > 56 µM; in assay [4], > 100 µM; in assay [5], 19.1 µM; in assay [6] it was 32.3 µM. Besides, the TGI in [7] was > 100 µM; in [8], > 100 µM; in assay [9], > 100 µM; in [10], > 19.7 µM.

In the case of `FC(F)(Sc1ncc[nH]1)c1nc2ccccc2o1`, the TGI in assay [1], in [2], in assay [3], in assay [4], in [5] and in [6] was > 100 µM each time. Also, the TGI in assay [7], in assay [8], in assay [9] and in [10] was > 100 µM in each case.

Consider `CC(C)Cc1cc2c(cc1O)CCC1C2CC[C@@]2(C)C1CC[C@@H]2O` (stereo partly specified), for which the TGI in assay [1] amounted to 23.1 µM; in assay [2] it was 26.4 µM; in [3], 21.7 µM; in [4] it was 16.3 µM; in assay [5], 21.6 µM; in assay [6], 19.6 µM. In addition, the TGI in assay [7] stood at 23.6 µM; in assay [8], 35.6 µM; in [9], 21.9 µM; in assay [10] it was 25.4 µM.

Regarding `C[N+](C)(C)CC(=O)N/N=C/c1ccncc1`, the TGI in [1], in assay [2], in [3], in assay [4], in assay [5] and in assay [6] was > 100 µM each time. For the same compound, the TGI in assay [7], in assay [8], in [9] and in assay [10] was > 100 µM each time.

Regarding `c1ccc2c(c1)NC1(N3CCCCC3)CCCCC21` (stereo unspecified), the TGI in [1] is > 100 µM; in [2] it was > 100 µM; in [3], > 100 µM; in assay [4], 80.2 µM; in assay [5] it was > 100 µM; in assay [6] it was > 100 µM. In addition, the TGI in assay [7], in assay [8], in assay [9] and in assay [10] was > 100 µM each time.

Consider `CN1CN(c2ccccc2)C2(CCN(CCC3COc4ccccc4O3)CC2)C1=O` (stereo unspecified), for which the TGI was 48.2 µM in assay [1]; > 100 µM in [2]; > 100 µM in assay [3]; > 100 µM in assay [4]; 19.6 µM in assay [5]; 44.9 µM in [6]. Moreover, the TGI in assay [7] was > 100 µM; in assay [8], 77.5 µM; in assay [9] it was 83.9 µM; in assay [10], > 100 µM.

In the case of `O=C(CSc1nc2ccc(I)cc2c(=O)n1Cc1ccccc1)NNC(=O)c1ccccc1`, the TGI is 27.4 µM in [1]; 68.8 µM in [2]; > 100 µM in [3]; 17.5 µM in [4]; > 100 µM in assay [5]; 15.5 µM in assay [6]. Moreover, the TGI in [7] was 21 µM; in [8] it was 12.3 µM; in assay [9], > 100 µM; in [10], > 100 µM.

Turning to `C[C@@H](NC(=O)c1ccc(CNC(=O)/C=C/c2cccc(Oc3ccccc3)c2)cc1)c1ccccc1`, the TGI in assay [1] was > 89.2 µM; in assay [2], > 100 µM; in assay [3], > 100 µM; in [4], 12.2 µM; in assay [5], > 100 µM; in assay [6] it was > 100 µM. For the same compound, the TGI in [7] was 35.4 µM; in [8], 44.2 µM; in assay [9] it was > 100 µM; in assay [10] it was > 100 µM.

Take `COc1ccc(C2C3CCc4ccccc4C3=NN2S(=O)(=O)c2ccc(/C=C/C(=O)O)cc2)cc1` (stereo unspecified): the TGI was > 100 µM in assay [1]; 1.87 µM in [2]; 0.717 µM in [3]; 31.4 µM in [4]; 13.6 µM in [5]; 15.7 µM in [6]. The TGI in [7] was 15.9 µM; in assay [8], > 100 µM; in assay [9], > 100 µM; in assay [10], > 100 µM.

For `CN1CCN(c2ccc3nc(-c4ccc5nc(-c6ccc(O)cc6)[nH]c5c4)[nH]c3c2)CC1`, the TGI worked out at 1300 µM in assay [1]; 531 µM in assay [2]; 736 µM in assay [3]; 529 µM in [4]; 295 µM in [5]; 470 µM in assay [6]. For the same compound, the TGI stood at 941 µM in assay [7], 306 µM in assay [8], 464 µM in assay [9] and 959 µM in assay [10]. For the same compound, the GI50 in assay [6] is 12.7 µM and 6.04 µM.

As for `Cc1ccc2nc(C=Nc3ccc(Cl)cc3)cc(C)c2c1`, the TGI in assay [1] was 57 µM; in assay [2] it was 38 µM; in [3], 0.4 µM; in assay [4] it was 62.3 µM; in assay [5], 37.8 µM; in [6], > 39.5 µM. Moreover, the TGI is 35.3 µM in assay [7], > 76.7 µM in [8], 29.4 µM in assay [9] and 27.2 µM in assay [10].

`O=C(O)CCCc1ccc2ccccc2c1`: the TGI in assay [1], in assay [2], in [3], in assay [4], in assay [5] and in assay [6] was > 100 µM in each case. Moreover, the TGI in [7], in [8], in assay [9] and in [10] was > 100 µM in each case.

The values are drawn from PubChem BioAssay (NCI).
